Laboratory results as given in patent US4918064A, “Phenyl glycines for use in reducing neurotoxic injury” (G. D. Searle & Co., priority 1987, dated 1990).
Like-named read-outs stand apart in the source and are kept apart here.

What was measured:
NMDA receptor = assay: NMDA-specific L-[3H]glutamate receptor binding assay, synaptic plasma membranes; conditions: L-[3H]glutamate 12.5 nM, Triton X-100 treated SPM, 0-4° C., 10 min
Protocol: Synaptic plasma membranes (SPM) were prepared as previously described [Monahan, J. B. and Michel, J., "Identification and Characterization of an N-methyl-D-aspartate-specific L[^3 H]glutamate Recognition Site in Synaptic Plasma Membranes, J. Neurochem., 48, 1699-1708 (1987)]. The SPM were stored at a concentration of 10-15 mg/ml in 0.32M sucrose, 0.5 mM EDTA, 1 mM MgSO4, 5 mM Tris/SO4, pH 7.4, under liquid nitrogen. The identity and purity of the subcellular fractions were confirmed by both electron microscopy and marker enzymes. Protein concentrations were determined by using a modification of the method of Lowry [Ohnishi, S. T. and Barr, J. K., "A Simplified Method of Quantitating Proteins Using the Biuret and Phenol Reagents", Anal. Biochem., 86, 193-197 (1978)].
Prior to use in the NMDA-specific L-[^3 H]glutamate binding assay the SPM were thawed, diluted twenty fold with 50 mM Tris/acetate, pH 7.4 containing 0.04% (v/v) Triton X-100, incubated for 30 minutes at 37° C. and centrifuged as described above. The Triton X-100 treated membranes were washed with 50 mM Tris/acetate, pH 7.4 and centrifuged at 100,000 g for 15 minutes a total of four times.
The basic procedure for the receptor subclass binding assays was similar. This general method involved adding the radioligand (12.5 nM L-[^3 H]glutamate; 0.5 nM [^3 H]kainate or 10 nM [^3 H]AMPA) to the appropriate concentration of the test compound and initiating the assay by the addition of ice cold synaptic plasma membranes (0.2-0.45 mg). The binding assays were performed in 1.5 mL centrifuge tubes with the total volume adjusted to 1.0 mL. .Additions of test compounds were made in 50 mM Tris/acetate, pH 7.4 and incubations were carried out at 0°-4° C. The incubation time for the NMDA and the AMPA binding assays was 10 minutes, for the kainate binding assay 60 minutes and for the sodium-dependent glutamate binding assay 15 minutes. The AMPA binding assay contained 100 mM KSCN and the sodium-dependent glutamate binding assay contained 150 mM sodium acetate in addition to the previously described reagents.
To terminate the incubation, the samples were centrifuged for 15 minutes at 12,000 g and 4° C. in a Beckman Microfuge 12. The supernatant was aspirated and the pelleted membranes dissolved in Beckman BTS-450 tissue solubilizer for a minimum of 6 hours at room temperature. Beckman MP scintillation cocktail containing 7 mL/1 acetic acid was then added and the samples counted on a Beckman LS 5800 or 3801 liquid scintillation counter with automatic corrections for quenching and counting efficiency.
Nonspecific binding was defined as the residual binding in the presence of either excess L-glutamate (0.1-0.4 mM), kainate (0.01 mM), or NMDA (0.5 mM), and was 15-25% of the total binding in the NMDA binding assay, 19-27% in the AMPA binding assay, 20-30% in the kainate binding assay and 10-15% in the sodium-dependent binding assay. Radioligand binding to the synaptic plasma membranes was analyzed using Scatchard and Hill transformations and the Ki values of the compounds determined using logit-log transformations. Calculations and regression analysis were performed using templates developed for Lotus 1, 2, 3 as previously described [Pullan, L. M. "Automated Radioligand Receptor Binding Analysis with Templates for Lotus", Computer Appln. Biosci., 3 131 (1987)]. Binding results are reported in Table II for example compounds of the invention. […]

hippocampal neurons = format: cell-based, Sprague-Dawley rat; conditions: 1 μM compound
Protocol: Hippocampal neurons were obtained from embryonic day 17 Sprague-Dawley rats. The brains were removed and the hippocampus dissected, placed in ice-cold Leibovitz L-15 medium, carefully stripped of any remaining meninges, and minced into small pieces using scissors. The tissue was rinsed with calcium-magnesium-free Hanks' Balanced Salt Solution and incubated with 0.25% trypsin (Worthington), 40 μg/ml DNAase (Sigma) for 30 minutes at 36° C. Following incubation, the cells were rinsed with 10% serum-containing medium and dissociated by gentle trituration using a reduced bore diameter Pasteur pipet. The cells were plated on a polylysine-coated (0.5 rg/ml, Sigma) 96-well microtiter plates at 30,000 cells/well. Cells were maintained in fluorodeoxyuridine (5 μM) containing chemically defined medium [Bottenstein, J., Sato, G., "Growth of a Rat Neuroblastoma Cell Line in Serum-free Supplemented Medium", Proc. Nat'l. […]
The neuronal survival assay utilized the compound MTT [3-(4,5-dimethylthiazol-2-yl)-2,5-diphenyl tetrazolium bromide], a pale yellow substrate that is cleaved by the mitochondrial enzyme succinate-dehydrogenase to yield a dark blue formazan product. […] The precipitate was then solubilized using 0.08N HCl/isopropanol mixture and the absorbance measured with an ELISA plate reader (Dynatech MR600) using a test wavelength of 570 nm and a reference wavelength of 630 nm. […]

CD-1 mouse = assay: In Vivo 3-MPA-Induced Convulsions (tonic hindlimb extension); conditions: Mus musculus
Protocol: In the CD-1 mouse, i.p. injection of 3-MPA produces clonic seizures, tonic hindlimb extension and death. Seizures begin within 2-3 minutes after injection. The dose-response for induction of tonus by 3-MPA is unusual. The incidence of tonus increases rapidly from 35 to 50 mg/kg and remains constant at a less than maximal level over a broad dose range. 3-MPA doses from 50 to 150 mg/kg produce tonus in approximately 75% of the treated mice. The incidence of death over this dose range is variable and less than maximal.
In order to test for antagonism of 3-MPA-induced tonus, the lowest dose of 3-MPA that produced tonus consistently in 75% of the animals (50 mg/kg i.p.) was chosen. Test compounds were administered subcutaneously 30-40 minutes prior to i.p. administration of 3-MPA. Immediately after 3-MPA administration, each mouse was placed in a small cage made of steel rods. The mice were then observed for the presence or absence of tonic hindlimb extension. Reduction (from 75%) in the incidence of tonic hindlimb extension was considered protection from 3-MPA-induced convulsions. The dose of the test compound varied using groups of ten mice per dose until dose response curves are constructed, and ED50 's are calculated.

NC(C(=O)O)c1ccc(CP(=O)(O)O)cc1 (stereo not shown) [Example VI, 4-(Phosphonomethyl)phenylglycine]
Ki (NMDA receptor): 3.9 µM | protection of neurons from sodium azide toxicity (hippocampal neurons): significant protection | ED50 (CD-1 mouse; po, i.g., 3-MPA 50 mg/kg i.p., read-out: 3-MPA Convulsions i.g. (ED50)): 300 mg/kg | ED50 (CD-1 mouse; sc, s.c. 30-40 minutes prior to 3-MPA 50 mg/kg i.p., read-out: 3-MPA Convulsions s.c. (ED50)): 6 mg/kg
